Data set [1] can be described thus: Caco-2 bi-directional permeability assay. Format: in vitro ADME. As to conditions: human, Caco-2. Here is the method: (§1) Alternatively, the in vitro transporter affinity of a drug substance can be determined and approximated by measuring the compound permeability across cells known to express ABC transporters, as e.g. the Caco-2 cell line. Interaction of Compound I with ABC transporter(s) is measured by determining the concentration-dependent compound transport across Caco-2 cell monolayers from the apical (AP) to basolateral (BL) as well as the basolateral to apical side.
For orientation: Caco-2 monolayers are a common model of the intestinal barrier.

In data set [2] the test system is Caco-2 cell monolayers. In words: Caco-2 bi-directional permeability assay. Format: in vitro ADME. As to conditions: Caco-2 cell monolayers. The method, then: as §1
Data set [3] has as its target MDR1 (Homo sapiens, UniProt P08183). Nature of the data set: ATPase assay, reconstituted membranes expressing high levels of MDR1. The conditions noted are these: for ATPase activity: MDR1 membranes. Format: biochemical. An excerpt:
(§2) In this assay the ABC transporters remove substrates out of reconstituted cell membranes by using ATP hydrolysis as an energy source. ATP hydrolysis yields inorganic phosphate (Pi), which can be detected by a simple colorimetric reaction. The amount of Pi liberated by the transporter is proportional to the activity of the transporter. Membrane preparations containing ABC transporters show a baseline ATPase activity that varies for different transporters. Transported substrates increase this baseline ATPase activity. […] No activation of the MDR1 efflux could be observed.

Data set [4] has as its target T1, MRP2 (Homo sapiens, UniProt Q92887). Nature of the data set: Vesicular uptake assay of [3H]LTC4 in membrane vesicles over-expressing MRP2. In kind it is biochemical. The conditions noted are these: [3H]LTC4 0.2 μM; for Vesicular uptake, AMP activation / Vesicular uptake, ATP activation: MRP2 vesicles. Here is the method: (§3) In this assay ATP-dependent uptake into membrane vesicles with inside-out orientation is determined. Interaction of Compound I with ABC transporters is measured indirectly by incubating the purified membrane vesicles with known radioactive probe substrates ([^3H]LTC4 [0.2 μM] for MRP2-LTC4 stands for Leutriene C4- and [^3H]E1S [0.5 μM] -E1S stands for […]—for BCRP) in the presence and absence (negative control) of different concentrations of Compound I or a well-known positive control compound (Benzbromanone for MRP2 and Sulphasalazine for BCRP). As illustrated herein (Tables 2 and 3), Compound I inhibits [^3H]E1S as well as [^3H]LTC4 transport mediated by BCRP (IC50≅1 μM) and MRP2 (IC50≅50 μM), respectively.

Data set [5] concerns the target T2, BCRP (Homo sapiens, UniProt Q9UNQ0).
T2 sequence (Q9UNQ0 1-655): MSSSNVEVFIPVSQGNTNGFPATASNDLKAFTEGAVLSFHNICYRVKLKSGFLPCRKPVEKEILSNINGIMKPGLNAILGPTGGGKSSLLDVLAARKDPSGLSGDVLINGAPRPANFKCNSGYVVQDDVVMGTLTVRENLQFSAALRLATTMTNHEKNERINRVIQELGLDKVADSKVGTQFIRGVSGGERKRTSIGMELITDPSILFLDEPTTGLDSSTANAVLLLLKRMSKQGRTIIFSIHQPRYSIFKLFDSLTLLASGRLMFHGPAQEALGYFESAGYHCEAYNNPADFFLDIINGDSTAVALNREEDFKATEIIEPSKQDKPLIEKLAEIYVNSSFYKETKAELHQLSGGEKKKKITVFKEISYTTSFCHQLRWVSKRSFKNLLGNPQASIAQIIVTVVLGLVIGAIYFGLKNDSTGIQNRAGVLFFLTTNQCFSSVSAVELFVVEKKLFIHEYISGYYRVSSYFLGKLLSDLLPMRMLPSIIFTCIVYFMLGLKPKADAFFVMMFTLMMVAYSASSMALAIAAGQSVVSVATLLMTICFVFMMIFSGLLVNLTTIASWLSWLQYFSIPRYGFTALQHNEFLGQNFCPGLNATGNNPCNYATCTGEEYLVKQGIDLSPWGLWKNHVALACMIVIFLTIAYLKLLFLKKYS
In words: Vesicular uptake assay of [3H]E1S in membrane vesicles over-expressing BCRP. Format: biochemical. As to conditions: [3H]E1S 0.5 μM, read-out: IC50, inhibition of [3H]E1S transport mediated by BCRP. The method, then:
as §3

Data set [6] has as its target T2, BCRP. In words: ATPase assay, reconstituted membranes expressing high levels of BCRP. Format: biochemical.
From the text: as §2

Data set [7] addresses T1, MRP2. Nature of the data set: ATPase assay, reconstituted membranes expressing high levels of MRP2. Format: biochemical.
From the text: as §2

As a reminder, the Km is the concentration of substrate that gives half-maximal velocity. What is called IC50 is the concentration that inhibits the measured activity by half.

T1 sequence (Q92887 whole entry, species assumed): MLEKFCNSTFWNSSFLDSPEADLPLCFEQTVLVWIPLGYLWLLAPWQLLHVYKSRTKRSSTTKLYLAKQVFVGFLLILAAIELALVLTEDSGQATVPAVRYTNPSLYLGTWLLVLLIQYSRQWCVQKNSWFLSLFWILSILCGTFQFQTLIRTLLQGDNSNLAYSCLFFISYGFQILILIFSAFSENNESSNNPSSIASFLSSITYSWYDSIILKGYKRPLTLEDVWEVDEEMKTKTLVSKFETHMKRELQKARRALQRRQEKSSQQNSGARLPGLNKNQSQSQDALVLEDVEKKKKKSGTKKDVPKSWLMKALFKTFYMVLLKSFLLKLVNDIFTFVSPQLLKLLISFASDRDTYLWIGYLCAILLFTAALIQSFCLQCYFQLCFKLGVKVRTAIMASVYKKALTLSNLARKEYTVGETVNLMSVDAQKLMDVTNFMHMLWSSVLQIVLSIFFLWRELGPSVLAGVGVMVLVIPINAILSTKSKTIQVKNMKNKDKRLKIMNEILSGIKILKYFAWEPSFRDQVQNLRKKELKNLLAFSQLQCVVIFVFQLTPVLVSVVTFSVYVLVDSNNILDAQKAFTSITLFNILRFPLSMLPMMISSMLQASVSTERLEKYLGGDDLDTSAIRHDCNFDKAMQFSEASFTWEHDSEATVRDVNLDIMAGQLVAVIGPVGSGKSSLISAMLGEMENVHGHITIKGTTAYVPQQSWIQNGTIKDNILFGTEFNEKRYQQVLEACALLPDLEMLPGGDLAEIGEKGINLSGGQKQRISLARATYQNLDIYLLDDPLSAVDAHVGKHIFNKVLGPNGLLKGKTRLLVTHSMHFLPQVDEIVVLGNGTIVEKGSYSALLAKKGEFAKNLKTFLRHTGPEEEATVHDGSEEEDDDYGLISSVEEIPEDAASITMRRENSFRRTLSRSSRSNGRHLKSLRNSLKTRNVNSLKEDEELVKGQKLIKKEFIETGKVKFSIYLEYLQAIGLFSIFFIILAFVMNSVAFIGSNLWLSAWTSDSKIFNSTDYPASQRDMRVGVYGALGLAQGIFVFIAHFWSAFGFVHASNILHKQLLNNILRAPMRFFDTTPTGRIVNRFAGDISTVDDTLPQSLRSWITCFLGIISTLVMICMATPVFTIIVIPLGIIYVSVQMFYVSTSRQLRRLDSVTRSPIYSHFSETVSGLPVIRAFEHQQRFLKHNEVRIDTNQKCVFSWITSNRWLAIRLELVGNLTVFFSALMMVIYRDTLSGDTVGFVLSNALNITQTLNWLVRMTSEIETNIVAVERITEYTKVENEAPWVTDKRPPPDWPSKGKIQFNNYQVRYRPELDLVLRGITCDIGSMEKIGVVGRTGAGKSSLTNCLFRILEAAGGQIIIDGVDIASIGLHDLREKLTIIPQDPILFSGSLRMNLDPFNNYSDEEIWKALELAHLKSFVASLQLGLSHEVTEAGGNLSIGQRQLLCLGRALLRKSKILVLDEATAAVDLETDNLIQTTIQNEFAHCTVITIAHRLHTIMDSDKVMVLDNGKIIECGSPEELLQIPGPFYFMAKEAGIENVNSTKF
MDR1, sequence (P08183 whole entry, species assumed): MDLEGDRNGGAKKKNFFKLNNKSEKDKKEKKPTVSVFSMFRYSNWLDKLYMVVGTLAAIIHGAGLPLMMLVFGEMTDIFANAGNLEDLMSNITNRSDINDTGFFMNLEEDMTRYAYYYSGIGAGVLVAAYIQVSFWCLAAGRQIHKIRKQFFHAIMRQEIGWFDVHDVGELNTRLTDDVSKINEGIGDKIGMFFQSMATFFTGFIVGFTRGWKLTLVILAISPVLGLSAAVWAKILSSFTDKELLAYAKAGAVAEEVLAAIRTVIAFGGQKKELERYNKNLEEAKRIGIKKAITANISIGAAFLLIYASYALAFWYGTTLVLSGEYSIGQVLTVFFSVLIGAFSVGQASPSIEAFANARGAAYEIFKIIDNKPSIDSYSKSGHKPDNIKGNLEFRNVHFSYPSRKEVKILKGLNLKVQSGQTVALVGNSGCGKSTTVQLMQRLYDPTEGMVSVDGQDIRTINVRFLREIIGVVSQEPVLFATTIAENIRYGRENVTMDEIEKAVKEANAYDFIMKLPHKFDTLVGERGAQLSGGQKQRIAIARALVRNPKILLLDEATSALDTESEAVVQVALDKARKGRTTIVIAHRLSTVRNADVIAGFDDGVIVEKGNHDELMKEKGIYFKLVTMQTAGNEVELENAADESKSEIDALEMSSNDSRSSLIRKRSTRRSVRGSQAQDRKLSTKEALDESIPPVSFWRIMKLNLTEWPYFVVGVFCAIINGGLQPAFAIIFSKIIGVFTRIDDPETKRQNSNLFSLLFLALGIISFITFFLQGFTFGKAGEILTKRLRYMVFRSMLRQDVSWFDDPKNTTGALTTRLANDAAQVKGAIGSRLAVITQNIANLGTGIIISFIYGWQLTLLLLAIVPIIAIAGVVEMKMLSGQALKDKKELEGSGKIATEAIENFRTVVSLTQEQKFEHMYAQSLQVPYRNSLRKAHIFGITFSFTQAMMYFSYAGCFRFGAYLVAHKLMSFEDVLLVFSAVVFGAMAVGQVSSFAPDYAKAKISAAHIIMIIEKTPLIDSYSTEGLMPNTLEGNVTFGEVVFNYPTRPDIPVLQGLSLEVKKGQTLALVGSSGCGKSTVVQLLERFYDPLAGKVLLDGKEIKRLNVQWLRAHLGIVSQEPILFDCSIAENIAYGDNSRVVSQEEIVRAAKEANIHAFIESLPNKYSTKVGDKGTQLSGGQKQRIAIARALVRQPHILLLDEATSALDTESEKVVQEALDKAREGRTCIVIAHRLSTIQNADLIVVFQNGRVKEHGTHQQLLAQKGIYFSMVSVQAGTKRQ

For the compound `O=C(O)c1ccc(-n2nc(-c3ccccc3O)nc2-c2ccccc2O)cc1` [Compound I, 4-[3,5-bis(2-hydroxyphenyl)-[1,2,4]trizol-1-yl]benzoic acid], the Papp A→B at 1 μM in data set [1] (apical to basolateral, conc. 1 μM, read-out: Caco-2 permeability Papp(AP-BL) (converted)) is 10 nm/s. For the same compound, the Papp A→B at 5 μM in data set [1] (apical to basolateral, conc. 5 μM, read-out: Caco-2 permeability Papp(AP-BL) (converted)) is 76.7 nm/s. Further, the Papp A→B at 10 μM in data set [1] (apical to basolateral, conc. 10 μM, read-out: Caco-2 permeability Papp(AP-BL) (converted)) was 116 nm/s. In data set [1] (apical to basolateral, conc. 50 μM, read-out: Caco-2 permeability Papp(AP-BL) (converted)), the Papp A→B at 50 μM is 146 nm/s. For the same compound, the Papp B→A at 1 μM in data set [1] (basolateral to apical, conc. 1 μM, read-out: Caco-2 permeability Papp(BL-AP) (converted)) was 155 nm/s. Further, the Papp B→A at 5 μM in data set [1] (basolateral to apical, conc. 5 μM, read-out: Caco-2 permeability Papp(BL-AP) (converted)) was 238 nm/s. Further, the Papp B→A at 10 μM in data set [1] (basolateral to apical, conc. 10 μM, read-out: Caco-2 permeability Papp(BL-AP) (converted)) was 222 nm/s. Moreover, the Papp B→A at 50 μM in data set [1] (basolateral to apical, conc. 50 μM, read-out: Caco-2 permeability Papp(BL-AP) (converted)) is 215 nm/s. Besides, the “concentration at which bi-directional permeability values converge (complete efflux transporter saturation)” value in data set [2] is given as “about 50 μM”. Further, the efflux substrate identification result in data set [2] (AP-BL vs BL-AP transport) is “substrate for one or several prominent efflux system(s)”. Also, the Km in data set [2] (bi-directional transport, read-out: apparent Km of efflux transport) was roughly 5 µM. The ATPase activity was 18.7 ± 0.6 nmol Pi/min/mg protein in data set [3] (Compound I 0.04 μM); 18.0 ± 0.7 nmol Pi/min/mg protein in data set [3] (Compound I 0.13 μM); 17.4 ± 1.3 nmol Pi/min/mg protein in data set [3] (Compound I 0.40 μM); 17.0 ± 1.0 nmol Pi/min/mg protein in data set [3] (Compound I 1.21 μM); 17.3 ± 0.3 nmol Pi/min/mg protein in data set [3] (Compound I 3.63 μM); 17.3 ± 0.5 nmol Pi/min/mg protein in data set [3] (Compound I 10.89 μM). Moreover, the ATPase activity in data set [3] (Compound I 32.67 μM) is on record as 17.3 ± 0.4 nmol Pi/min/mg protein; in data set [3] (Compound I 98.0 μM), 16.7 ± 0.5 nmol Pi/min/mg protein; in data set [6] (Compound I 0.04 μM), 32.9 ± 1.0 nmol Pi/min/mg protein; in data set [6] (Compound I 0.13 μM), 35.5 ± 0.8 nmol Pi/min/mg protein; in data set [6] (Compound I 0.40 μM) it was 34.2 ± 8.0 nmol Pi/min/mg protein; in data set [6] (Compound I 1.21 μM) it was 49.4 ± 0.5 nmol Pi/min/mg protein. Also, the ATPase activity worked out at 61.1 ± 0.3 nmol Pi/min/mg protein in data set [6] (Compound I 3.63 μM); 65.9 ± 0.1 nmol Pi/min/mg protein in data set [6] (Compound I 10.89 μM); 65.7 ± 0.5 nmol Pi/min/mg protein in data set [6] (Compound I 32.67 μM); 60.3 ± 1.6 nmol Pi/min/mg protein in data set [6] (Compound I 98.0 μM); 5.1 ± 0.6 nmol Pi/min/mg protein in data set [7] (Compound I 0.04 μM); 5.4 ± 0.3 nmol Pi/min/mg protein in data set [7] (Compound I 0.13 μM). Also, the ATPase activity in data set [7] (Compound I 0.40 μM) was 5.4 ± 0.1 nmol Pi/min/mg protein; in data set [7] (Compound I 1.21 μM), 5.1 ± 0.4 nmol Pi/min/mg protein; in data set [7] (Compound I 3.63 μM), 5.0 ± 0.0 nmol Pi/min/mg protein; in data set [7] (Compound I 10.89 μM), 5.2 ± 0.4 nmol Pi/min/mg protein; in data set [7] (Compound I 32.67 μM) it was 6.3 ± 0.2 nmol Pi/min/mg protein; in data set [7] (Compound I 98.0 μM), 8.3 ± 0.7 nmol Pi/min/mg protein. The “activation of the MDR1 efflux (ATPase)” value in data set [3] (reconstituted membranes expressing high levels of MDR1) is “No activation”. The “Vesicular uptake, AMP activation” value in data set [4] (compound conc. 10 μM) stood at 5.4 pmol/mg/min; in data set [4] (compound conc. 100 μM), 5.8 pmol/mg/min. The “Vesicular uptake, ATP activation” value was determined as 25.6 pmol/mg/min in data set [4] (compound conc. 10 μM) and 11.5 pmol/mg/min in data set [4] (compound conc. 100 μM). The IC50 was roughly 50 µM in data set [4] (membrane vesicles, read-out: IC50, inhibition of [3H]LTC4 transport mediated by MRP2) and roughly 1 µM in data set [5].
Turning to `CCCCc1oc2ccccc2c1C(=O)c1cc(Br)c(O)c(Br)c1` [Benzbromanone, reference compound], in data set [4] (positive control conc. 3000 μM), the “Vesicular uptake, AMP activation” value was 11.1 pmol/mg/min and the “Vesicular uptake, ATP activation” value is 10.8 pmol/mg/min.

Source of the values: patent publication US20090306160A1, “METHODS FOR IMPROVING DRUG DISPOSITION” (priority 2005, published 2009).
